row,Compound,melting point [°C]
1,CCOc1cc(C)nc(-n2ccnc2)n1,116
2,CC1CC2C3CCC4=CC(=O)C=CC4(C)C3=CCC2(C)C1(O)C#N (configuration not stated),241 to 248
3,CN(C)C(=S)Nc1ccccc1N1CCOCC1,150 to 152
4,COc1ccc(S(=O)(=O)C[N+](=O)[O-])s1,70 to 71
5,Nc1cc(=O)n(CCCO)c2nc(NC3CCCCC3)ncc12,131 to 132
6,Nc1ncnc2nsnc12,247 to 249
7,CCCCCC(=O)C=Cc1ccc(CCCCCCCCCC(=O)OC)s1,45 to 47
8,C1=C(c2c[nH]c3ccccc23)CCN(CC2COc3ccc4[nH]ccc4c3O2)C1 (configuration not stated),126
9,CCCN(CCC)c1c([N+](=O)[O-])cc(C2OCCS2)cc1[N+](=O)[O-] (configuration not stated),111 to 112
10,CC(C)(C)OC(=O)N1CCn2c(Cl)cc(C(N)=O)c2C1,223 to 225
11,CCOC(=O)C(C#N)=CNc1ccc(OC)c(OC)c1,150 to 155
12,Cc1cccc2c(CCN3CCCCC3)c(-c3ccccc3)[nH]c12,159 to 161
13,CN(C)C=C(C#N)CC#N,49
14,O=C(O)C(CC1CC2CCN1CC2)(c1ccccc1)c1ccccc1 (configuration not stated),180 to 185
15,c1nc(-c2ccc(CN3CCCCCC3)s2)n[nH]1,129 to 130
16,O=S(=O)(N[C@H]1CC[C@H](CCN2CCC(c3cccc4c3CCO4)CC2)CC1)c1ccc(F)cc1,134
17,CC(=O)N1CCC1CC(=O)O (configuration not stated),148 to 150
18,C=CC(=O)N1CCc2cc(OC)c(OC)cc2C12CCC(C(=O)OCC)(C(=O)OCC)CC2C1c2cc(OC)c(OC)cc2CCN1C(C)=O (configuration not stated),162 to 165
19,Nc1ncc(C2CCN(c3ccc(Cl)cc3)CC2)c(N)n1,254 to 255
20,Oc1cc2ccc(Br)cc2cc1C12CC3CC(CC(C3)C1)C2,215 to 216
21,Cc1cc(CBr)c(CBr)cc1C,116 to 120
22,O=[N+]([O-])c1ccc2c(c1)N(C1CC1)CNS2(=O)=O,166 to 169
23,CCOP(=O)(CNCc1cccnc1-c1cc(OC)c(O)c(OC)c1)OCC,99 to 101

row,Compound,melting point [°C]
1,C=CCc1cc(N2CCN(c3ccncc3)CC2)ccc1O,180 to 182
2,CCC(SCC(=O)O)c1cc2c(cc1C)OCO2 (configuration not stated),98 to 99
3,N=C(N)NCCCCOc1ccc2c(c1)CC(CCC(=O)O)C(=O)N2 (configuration not stated),152 to 155
4,CNC(=O)Oc1ccc(N=Cc2ccccc2O)c2ccccc12,143 to 146
5,COc1cc2c(cc1Nc1ncc(Cl)c(N[C@@H]3CCCC[C@H]3NS(C)(=O)=O)n1)NC(=O)CN(CC1CC1)C2,97
6,CN(C(=O)c1ccc2nonc2c1)C1CCCC(=O)C1 (configuration not stated),164 to 165
7,Clc1cc(N2CCSCC2)nc(Cl)n1,118 to 122
8,Cc1c2ccnc(Cl)c2cc2c1[nH]c1ccncc12,> 263
9,CC(C)(n1cncn1)C(O)(Cn1cncn1)c1ccc(F)cc1 (configuration not stated),156 to 158
10,CCCC(=O)OCC(=O)C1(OC(=S)CC)CCC2C3CC(C)C4=CC(=O)C=CC4(C)C3C(O)CC21C (configuration not stated),126 to 128
11,CCc1n[nH]c(CC)c1CCCCCCOc1ccc(OC)cc1Cl,91 to 93
12,CN1CCN(C(=O)c2cnc(S)n2Cc2cc(F)cc(F)c2)CC1,243 to 244
13,COc1cccc2c(C(F)(F)F)cc(C)nc12,112 to 113
14,CCCCN1C(=O)c2c(c(C)nn2C)Nc2ncccc21,144 to 146
15,CS(=O)(=O)NCCC1(C[N+](=O)[O-])CCCCC1,86 to 88
16,O=C(O)C1=Cc2cc(C(F)(F)F)ccc2NC1C(F)(F)F (configuration not stated),150 to 156
17,O=C1CC2(C(=O)N1)C(=O)N1CCCc3cccc2c31 (configuration not stated),253 to 255
18,CNC1=NN(c2cccc(C(F)(F)F)c2)CC1,93.1
19,COC(=O)C=Cc1ccc(Cl)c(C(F)(F)F)c1,71 to 73
20,O=C1NCCN1Cc1cccc(F)c1,103 to 105
21,COCCOc1cc2ncc(C#N)c(Cl)c2cc1O,174 to 175
22,CS(=O)c1c(N)nc(N)nc1Cl (configuration not stated),126 to 128

# The remaining lines, values ahead:
row,melting point [°C],Compound
1,152 to 153,CCCC(=O)n1nc2c(c1NC)c(=O)n(CCC)c(=O)n2Cc1cccc(Cl)c1
2,108,COc1ccc(CCCc2ccc(O)cc2O)c(OC)c1C
3,107 to 109,O=S(=O)(/C=C/c1ccccc1)Nc1ccc(Cl)cc1
4,168 to 170,COc1ccc(NC(=O)NC/C=C2\CCCc3ccc(OC)cc32)cc1
5,72.9 to 74,CC(=O)N1CCC(C(=O)N(CCCN2CC3CN(C(=O)c4cccnc4N4CCC4)CC3C2)c2ccc(C)c(Cl)c2)CC1 (configuration not stated)
6,190 to 193,Cc1cccc(N2CCOC2=O)c1COc1cccn2c(CO)c(C)nc12
7,156 to 158,COC(=O)c1c(Cl)cc(Cl)cc1NC(=O)CSc1ccc(NC(=O)Cc2ccccc2)cc1
8,98,Cc1cccc(OCCOc2cccc(C)c2)c1
9,154 to 155,O=C(CCNC(=O)c1ccccc1)NCCSC(=O)c1ccccc1
10,217 to 219,Cn1c(=O)sc2cc(N3C[C@H](C(=O)NCCO)OC3=O)ccc21
11,102,CNn1c(C)nn(C(=O)NC(C)(C)CCc2ccccc2)c1=O
12,213 to 215,O=C(O)c1nc2c(=O)[nH]c3cc(C(F)(F)F)ccc3n2c1Cn1cnc(Cl)c1Cl
13,134,N#Cc1ccc(COc2ccc(C(=O)NC[C@@H](C(=O)NO)N3CCCCC3)cc2)cc1
14,242,O=C(Nc1ccccn1)Nc1cccc2c1C1CC3(CCN1C2=O)SCCS3 (configuration not stated)
15,170 to 172,Clc1ccc(-c2c(CC3NCCS3)cnn2-c2ccccc2)cc1 (configuration not stated)
16,142 to 144,CCCc1nc(C(C)(C)O)c(C(=O)OC2OC(=O)c3ccccc32)n1Cc1ccc(-c2ccccc2C(=O)O)cc1 (configuration not stated)
17,66,CCNC1CN(c2ccc(CCO[Si](c3ccccc3)(c3ccccc3)C(C)(C)C)cc2)S(=O)(=O)c2sc(S(N)(=O)=O)cc21 (configuration not stated)
18,107 to 110,Cc1cccc(-c2n[nH]cc2-c2ccc(F)c(-c3ccc(S(N)(=O)=O)c(C(F)(F)F)c3)c2)n1
19,186 to 190,CC(=O)N[C@@H](C)c1ccc(C(=O)O)cc1

row,melting point [°C],Compound
1,237 to 238,COc1ccc2nc3cc(OC)c(=O)cc-3sc2c1
2,111 to 112,Cc1cc(C)c(C(=O)c2ccc(-c3ccccc3)cc2)c(C)c1
3,128 to 129,CCCCOc1cc(C(=O)O)n(Cc2ccc(C(F)(F)F)cc2)n1
4,130 to 135,Cc1cccnc1-c1ccccc1Nc1nc(Nc2ccc3c(c2)C(C)(C)CCC(=O)N3)ncc1Cl
5,74 to 75,COc1nc(C)cnc1NS(=O)(=O)c1cccnc1-c1ccc(C(C)C)cc1
6,170,Cc1cccc(NC(=O)NCC(=O)N(CC(=O)Nc2cccc3cccnc23)c2ccccc2)c1
7,182 to 183,CC(C)(C)CC(=O)Nc1ccc2oc3c(c2c1)CCCCC3
8,145 to 147,O=C(O)C=Cc1cccc(OCc2nc(-c3ccccc3)c(-c3ccccc3)o2)c1
9,238,CN(C)NC(=O)Nc1cccc2c1C(=O)c1c-2n[nH]c1-c1ccc(N2CCNCC2)cc1
10,72 to 74,CCOC(=O)/C=C/c1cc(OCc2ccccc2)ccc1Br
11,193 to 195,Cc1ccc(S(=O)(=O)Oc2ccc(Cl)c3c2C(=O)c2cnccc2C3=O)cc1
12,156 to 157,COc1cc2nc(-c3ccccc3)nc(N3CCN(C(=O)Nc4ccc([N+](=O)[O-])cc4)CC3)c2cc1OC
13,65 to 67,COCCOC(=O)CS(=O)C(C)c1ccc(-c2ccccc2F)cc1 (configuration not stated)
14,179 to 180,Cc1ccc2c(c1)c1c(n2Cc2ccccc2)CCCC1=O
15,127 to 129,Cc1cc(CNc2cccc(C(=O)O)c2C(=O)O)oc1C
16,72 to 95,C=CCc1c(O)cc(O)c(C)c1C(=O)OC
17,120,COC(=O)C(C)Oc1ccc(N(C)c2nnc3cc(Cl)ccc3n2)cc1 (configuration not stated)
18,148,Clc1ccc(Cn2cc(CN3CCC(c4ccccc4)(c4ccccc4)CC3)nn2)cc1
19,255 to 256,O=C1C(=O)c2ccccc2C2=C1SCC1(CCN(S(=O)(=O)c3cccc(Cl)c3)CC1)O2

row,melting point [°C],Compound
1,210 to 211,COc1ccnnc1NS(=O)(=O)c1cccc(Cl)c1Cl
2,222 to 223,CON=C(C)c1ccc(Nc2nc3ccccc3c3occc23)cc1
3,76 to 78,CCCC(NS(=O)(=O)NC(=O)OCc1ccccc1)C(=O)OC (configuration not stated)
4,> 300,CCCc1nn(C)c2c(=O)[nH]c(Cc3ccc4[nH]c(=O)ccc4c3)nc12
5,205 to 208,Nc1ccc(Oc2ccc(Oc3ccc(N)cc3)c(P(=O)(c3ccccc3)c3ccccc3)c2)cc1
6,122 to 124,CCc1cc2c(c(CC)n1)CCC(=O)N2Cc1ccc(Oc2ccccc2CC(=O)O)cc1
7,198 to 199,COc1ccc(-c2cc3ccccc3[nH]2)cc1NCc1ccc([N+](=O)[O-])cc1
8,140 to 145,COc1cccc(S(=O)(=O)N2CCc3cc(OCc4ccccc4)c(OC)cc3C2=O)c1
9,174 to 178,COc1c(-c2ccc3cc(NS(C)(=O)=O)ccc3c2)cc(-n2ccc(=O)[nH]c2=O)cc1-c1ccc(C)o1
10,209 to 211,Cc1c(C=NO)c2cc(Br)ccc2n1-c1ccc(O)cc1
11,235 to 238,COc1ccc(/C(=C\C=C\C(=O)O)c2cccnc2)cc1
12,142 to 148,CC(=O)N1CCc2ccccc2C1Cc1ccccc1N (configuration not stated)
13,138 to 140,CCCN(CCCCNc1ncc(Cc2ccnc(O)c2)c(=O)[nH]1)c1ccccn1
14,180 to 182,Cc1noc(-c2cc3c(OC[C@@H](O)CN4CCC(c5ccc6ccccc6c5)CC4)cccc3s2)n1
15,137 to 139,O=C(N[C@H]1CCc2ccc(O)cc2C1)[C@H](O)c1ccc(OCc2ccccc2)cc1
16,133 to 136,Cc1cccc(-c2[nH]c(C(C)C)nc2-c2cccc(-c3ccc(NS(=O)(=O)C4CC4)cn3)c2)n1
17,172,CS(=O)(=O)c1ccc(-c2cc(F)c(F)cc2-c2ccc(F)c(Cl)c2)cc1
18,134,CC(C)(C)OC(=O)NC(Cc1ccc(C=O)cc1)C(=O)N1CCCC1 (configuration not stated)
19,75 to 76.5,CCS(CCO)=NS(=O)(=O)c1ccccc1 (configuration not stated)

# Reference: a melting point compilation (Tetko et al.; mined from patent text by program, amines drawn as free bases though some values may be those of a salt)
